Where only a bound is given, the exact number is not on record here.

Chain of Mitogen-activated protein kinase kinase kinase kinase 1 (Q92918 whole entry): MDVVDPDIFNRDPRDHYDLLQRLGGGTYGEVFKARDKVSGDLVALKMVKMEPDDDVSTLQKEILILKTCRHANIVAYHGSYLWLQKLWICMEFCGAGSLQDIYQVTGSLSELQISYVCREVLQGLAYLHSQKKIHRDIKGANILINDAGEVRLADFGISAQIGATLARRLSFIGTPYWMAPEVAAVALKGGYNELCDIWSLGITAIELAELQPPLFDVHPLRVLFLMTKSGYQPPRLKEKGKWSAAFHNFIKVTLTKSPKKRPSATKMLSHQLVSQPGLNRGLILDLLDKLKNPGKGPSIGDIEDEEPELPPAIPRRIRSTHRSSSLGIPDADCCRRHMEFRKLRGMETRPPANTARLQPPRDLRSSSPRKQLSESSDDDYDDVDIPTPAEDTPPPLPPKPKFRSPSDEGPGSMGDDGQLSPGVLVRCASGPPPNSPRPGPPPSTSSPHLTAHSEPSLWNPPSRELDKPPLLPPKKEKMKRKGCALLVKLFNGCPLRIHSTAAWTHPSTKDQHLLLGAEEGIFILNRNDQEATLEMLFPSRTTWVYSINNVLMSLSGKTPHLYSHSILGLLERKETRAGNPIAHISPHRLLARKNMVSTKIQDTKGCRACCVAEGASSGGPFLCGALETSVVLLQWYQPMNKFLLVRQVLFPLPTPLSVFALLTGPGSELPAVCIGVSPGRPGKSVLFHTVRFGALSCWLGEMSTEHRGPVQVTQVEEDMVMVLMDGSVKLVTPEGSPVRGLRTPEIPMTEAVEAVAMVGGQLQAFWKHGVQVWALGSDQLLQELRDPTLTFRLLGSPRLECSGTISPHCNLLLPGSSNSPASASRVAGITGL

The target of the assay is Mitogen-activated protein kinase kinase kinase kinase 1 (Homo sapiens, UniProt Q92918). The assay can be described thus: HPK1 ADP-Glo Enzyme Assay. The procedure:
The buffer used in the enzyme assay contains 5 mM MOPS (pH=7.2), 2.5 mM β-Glycerol Phosphate, 0.4 mM EDTA, 1 mM EGTA, 0.05 mM DTT, 5 mM MgCl2. The compound was dissolved in 100% DMSO at the concentration was 10 mM. The initial concentration of the test was 5 uM, and ten data points were diluted by three-fold gradient, and each point was repeatedly measured twice. The HPK1 protein was purchased from Thermo (Cat. No. PV6355) and diluted to 2× stock solution at the concentration of 10 nM (the final concentration of the enzyme assay was 5 nM). 2.5 µl of 2×HPK1 protein was added to each well of the plate containing the test compound, centrifuged at 1000 rpm for 30 seconds, and then incubated at 25° C. for 15 minutes. MBP protein was purchased from Millipore (Cat. No. 13-110) and ATP was purchased from Sigma (Cat. No. A7699-5G) and the two were formulated into 2× working solutions at concentrations of 4 uM and 80 uM. Added 2.5 μl mixture of 2×MBP and ATP, centrifuged at 1000 rpm for 30 seconds, then incubated at 25° C. for 90 minutes. Then added 5 ul of ADP-Glo (Promega, Cat. No. V9102) to the assay plate and incubated […] at 25° C. for 60 minutes. Finally, 10 ul of the kinase assay reagent (Promega, Cat. No. V9102) was added to the assay plate, centrifuged at 1000 rpm for 30 seconds at 25° C. for 60 minutes, and the […] was determined.
The IC50 is the midpoint of a concentration-inhibition curve. `CN1CCC(n2cc(-c3cnc(N)c(OCc4ccncc4)n3)c(N)n2)CC1` [US20240300941, Compound A14]: the IC50 lay within 0.1 to 1 µM. `Nc1ncc(-c2cnc(C3CCCCC3)s2)cc1OCc1ccncc1` [US20240300941, Compound A37]: the half-inhibitory concentration (IC50) was under 0.1 µM. For `CN1CCC(c2ncc(-c3cnc(N)c(OCc4cccc(C#CC5(O)CCCCC5)c4)c3)s2)CC1` [US20240300941, Compound A38] the value was over 1 µM. Molecule `CC(C)(O)C#Cc1cccc(COc2cc(-c3cnc(C4CCNCC4)s3)cnc2N)c1` [US20240300941, Compound A42] registered an IC50 of under 0.1 µM. For `Nc1ncc(-c2cnc(C3CCOCC3)s2)cc1OCc1ccncc1` [US20240300941, Compound A13] the value was under 0.1 µM; for `CC(C)c1ncc(-c2cnc(N)c(OCc3ccncc3)c2)s1` [US20240300941, Compound A36], under 0.1 µM; for `CN1CCC(c2ncc(-c3cnc(N)c(OCc4ccnc(C#CC(C)(C)O)c4)c3)s2)CC1` [US20240300941, Compound A10], under 0.1 µM. The figure for `CN1CCC(c2ncc(-c3cnc(N)c(OC(C)(C)c4ccncc4)c3)s2)CC1` [US20240300941, Compound A6] is over 1 µM.

Take `CN1CCC(c2ncc(-c3cnc(N)c(OCc4cccc(C#CC(C)(C)O)c4)c3)s2)CC1` [US20240300941, Compound A3]: the concentration for half-maximal inhibition (IC50) was under 0.1 µM. The figure for `Nc1ncc(-c2cnc(C3CCNCC3)s2)cc1OCc1ccncc1` [US20240300941, Compound A7] is under 0.1 µM; for `CC(C)c1ncc(-c2cnc(N)c(OCc3cccc(C#CC(C)(C)O)c3)c2)s1` [US20240300941, Compound A41] it is under 0.1 µM; for `COc1ccc(COc2cc(-c3cnc(C4CCN(C)CC4)s3)cnc2N)cc1` [US20240300941, Compound A9] it is over 1 µM. `CN1CCC(c2ncc(-c3cnc(N)c(OCc4ccnc(Cl)c4)c3)s2)CC1` [US20240300941, Compound A8] returned an IC50 of under 0.1 µM. The figure for `CN1CCN(c2ncc(-c3cnc(N)c(OCc4ccncc4)c3)s2)CC1` [US20240300941, Compound A12] is under 0.1 µM.

`CN1CCC(c2ncc(-c3cnc(N)c(OCc4cccc(C#CC5(O)CCC5)c4)c3)s2)CC1` [US20240300941, Compound A40]: the half-inhibitory concentration (IC50) was under 0.1 µM. For the molecule `CN1CCC(c2ncc(-c3cnc(N)c(OCc4cccc(C#CC5(O)CCCC5)c4)c3)s2)CC1` [US20240300941, Compound A34], the IC50 is under 0.1 µM.

Turning to `Cc1nc(C2CCN(C)CC2)sc1-c1cnc(N)c(OCc2cccc(C#CC(C)(C)O)c2)c1` [US20240300941, Compound A62], the IC50 was in the range of 0.1 to 1 µM.

The values are drawn from BindingDB's records for patent US20240300941 (Zhuhai Yufan Biotechnologies, 2024).
